Among the test systems are 786-0 renal; OVCAR-5 ovarian; SK-MEL-28 melanoma; NCI-H23 lung; K-562 leukemia; SN12C renal; EKVX NSCLC; RXF 393 renal; NCI-H522 lung.
Holding throughout (assay): DTP human tumour cell line panel, 48 h

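Five compound concentrations were applied to cells in 96-well plates for 48 hours; endpoints were derived by simple linear interpolation of the resulting dose-response curve. TGI: total growth inhibition.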 Some results are limits rather than exact numbers.

Take `CCn1c2c(c3ccccc31)[C@@H](c1ccc(Cl)cc1)CC1C(=O)N(c3ccccc3)C(=O)C21` (stereo partly drawn): the total growth inhibition concentration (TGI) in the experiment with 786-0 renal, in the experiment with OVCAR-5 ovarian, with SK-MEL-28 melanoma, in the experiment on NCI-H23 lung, in the experiment with K-562 leukemia and with SN12C renal was over 100 µM each time. Besides, the TGI with EKVX NSCLC, in the experiment on RXF 393 renal and in the experiment with NCI-H522 lung was over 100 µM each time.

Consider `Cc1cccc(C)c1N1C(=O)C(=O)C(c2nc3ccccc3s2)/C(=N/NC(=O)c2ccccc2O)C1=O` (stereo not drawn), for which the concentration for total growth inhibition (TGI) in the experiment with 786-0 renal was over 66 µM; in the experiment on OVCAR-5 ovarian it was over 100 µM; in the experiment with SK-MEL-28 melanoma, over 83.1 µM; in the experiment on NCI-H23 lung, 39.1 µM; in the experiment with K-562 leukemia, over 57 µM; with SN12C renal, over 100 µM. The TGI is over 100 µM in the experiment on EKVX NSCLC, 17.2 µM in the experiment on RXF 393 renal and 39.6 µM in the experiment on NCI-H522 lung.

Consider `CCOC(=O)C12C(C(=O)OC)=C(C)N(NC(=O)Nc3ccccc3)C1(N)N(NC(=O)Nc1ccccc1)C(C)=C2C(=O)OC` (stereo not drawn), for which the TGI in the experiment with 786-0 renal was over 100 µM; in the experiment on OVCAR-5 ovarian, over 100 µM; in the experiment with SK-MEL-28 melanoma, over 88.7 µM; with NCI-H23 lung, over 100 µM; with K-562 leukemia, over 73.5 µM; in the experiment on SN12C renal, over 100 µM. Moreover, the TGI is over 100 µM in the experiment with EKVX NSCLC, 74.3 µM in the experiment on RXF 393 renal and 55.3 µM in the experiment with NCI-H522 lung.

Take `Cc1cc(C)c(C(=O)O)c(SSc2cc(C)cc(C)c2C(=O)O)c1`: the TGI in the experiment on 786-0 renal, in the experiment on OVCAR-5 ovarian, in the experiment on SK-MEL-28 melanoma, with NCI-H23 lung, in the experiment with K-562 leukemia and with SN12C renal was over 100 µM in each case. Besides, the TGI with EKVX NSCLC, in the experiment on RXF 393 renal and in the experiment with NCI-H522 lung was over 100 µM each time.

As to `COC(=O)C(CC(=O)Nc1ccc(Cl)c(Cl)c1)C(=O)C(=O)Nc1ccc(Cl)c(Cl)c1` (stereo not drawn), the TGI with 786-0 renal, in the experiment with OVCAR-5 ovarian, in the experiment with SK-MEL-28 melanoma, in the experiment with NCI-H23 lung, with K-562 leukemia and in the experiment on SN12C renal was over 100 µM in each case. Moreover, the TGI with EKVX NSCLC, in the experiment with RXF 393 renal and in the experiment with NCI-H522 lung was over 100 µM in each case.

With `COC(=O)/C(C#N)=C(\N)C(Cl)(Cl)Cl`, the TGI amounted to 14.4 µM with 786-0 renal; 4.66 µM with SK-MEL-28 melanoma; 4.51 µM in the experiment on K-562 leukemia; 12.7 µM with SN12C renal; 17.8 µM in the experiment on EKVX NSCLC; 3.77 µM with RXF 393 renal. In the experiment on NCI-H522 lung, this compound gave a TGI of 4.14 µM.

With `COc1cc2c(cc1OC)C1Cc3ccc(OC)c(OC)c3C[N+]1([O-])CC2` (stereo not drawn), the TGI in the experiment on 786-0 renal, in the experiment on OVCAR-5 ovarian, with SK-MEL-28 melanoma, with NCI-H23 lung, in the experiment on K-562 leukemia and in the experiment on SN12C renal was over 100 µM each time. The TGI with EKVX NSCLC and with NCI-H522 lung was over 100 µM throughout.

With `CCOC(=O)C1=C(C)N(NC(N)=O)C2(N)N(NC(N)=O)C(C)=C(C(=O)OCC)C12C(=O)OCC` (stereo not drawn), the TGI in the experiment with 786-0 renal, in the experiment on OVCAR-5 ovarian, in the experiment on SK-MEL-28 melanoma, with K-562 leukemia, in the experiment with SN12C renal and in the experiment with EKVX NSCLC was over 100 µM each time. The TGI in the experiment on RXF 393 renal and in the experiment on NCI-H522 lung was over 100 µM in each case.

Regarding `CCCN(CCC)C(=O)c1nc(N)nc(-c2ccc(OC)cc2)c1-c1ccc(OC)cc1`, the TGI in the experiment on 786-0 renal, in the experiment on OVCAR-5 ovarian, in the experiment on SK-MEL-28 melanoma, in the experiment with NCI-H23 lung, in the experiment with K-562 leukemia and in the experiment with SN12C renal was over 100 µM throughout. The TGI in the experiment on EKVX NSCLC and in the experiment with NCI-H522 lung was over 100 µM in each case.

`Cc1nc(N)nc(N)c1CCCc1ccccc1`: the TGI is over 100 µM with 786-0 renal; over 100 µM with OVCAR-5 ovarian; 86.1 µM with SK-MEL-28 melanoma; over 100 µM in the experiment on NCI-H23 lung; over 100 µM in the experiment on K-562 leukemia; 51.9 µM in the experiment on SN12C renal. In addition, the TGI in the experiment on EKVX NSCLC and in the experiment on NCI-H522 lung was over 100 µM throughout.

In the case of `C/C(CC(=O)Nc1ccccc1C)=N/NS(=O)(=O)c1ccc(C)cc1`, the TGI in the experiment with 786-0 renal, with OVCAR-5 ovarian, with SK-MEL-28 melanoma, with NCI-H23 lung, in the experiment with K-562 leukemia and in the experiment with EKVX NSCLC was over 100 µM throughout. Moreover, the TGI with RXF 393 renal and with NCI-H522 lung was over 100 µM throughout.

Turning to `CC(C(=O)c1ccccc1)C1(O)C(=O)Nc2ccc(Cl)cc21` (stereo not drawn), the TGI with 786-0 renal, in the experiment with OVCAR-5 ovarian, in the experiment on SK-MEL-28 melanoma, in the experiment with NCI-H23 lung, in the experiment on SN12C renal and in the experiment on EKVX NSCLC was over 100 µM throughout. The TGI in the experiment with RXF 393 renal was over 100 µM.

On to `O=S(=O)(N=NC=C1c2ccccc2N(O)c2ccccc21)c1ccc(Cl)cc1`, for which the total growth inhibition concentration (TGI) in the experiment on 786-0 renal, in the experiment on OVCAR-5 ovarian, in the experiment with SK-MEL-28 melanoma, with NCI-H23 lung, in the experiment with K-562 leukemia and with SN12C renal was over 100 µM each time. Moreover, the TGI with EKVX NSCLC and in the experiment on NCI-H522 lung was over 100 µM in each case.

Consider `C=CCN1/C(=C2\SC(=S)N(c3ccc(C)cc3)C2=O)Sc2c1ncn(C)c2=O`, for which the TGI with 786-0 renal, in the experiment on OVCAR-5 ovarian, in the experiment with NCI-H23 lung, in the experiment with K-562 leukemia, with SN12C renal and in the experiment on EKVX NSCLC was over 100 µM throughout. Moreover, in the experiment with NCI-H522 lung, the TGI was over 100 µM.

Take `C#CC1(O)CCC2[C@@H]3CCc4cc(Oc5nc(F)nc(-c6c7ccccc7c(SCC)n6CCC)n5)ccc4C3CC[C@@]21C` (stereo partly drawn): the TGI in the experiment with 786-0 renal is over 100 µM; in the experiment on OVCAR-5 ovarian it was over 100 µM; in the experiment on SK-MEL-28 melanoma, over 100 µM; in the experiment on NCI-H23 lung, 63.9 µM; with K-562 leukemia it was over 100 µM; in the experiment with EKVX NSCLC it was over 100 µM. Also, in the experiment with RXF 393 renal, the TGI came to 55.4 µM.

For `O=C(Nc1ccccc1-c1nn(CN2CCNCC2)c(=S)n(CN2CCNCC2)c1=O)C(F)(F)F`, the TGI with 786-0 renal turned out to be 35.1 µM; in the experiment on OVCAR-5 ovarian it was 45 µM; in the experiment on SK-MEL-28 melanoma, 33.2 µM; in the experiment with NCI-H23 lung it was 32.6 µM; in the experiment with K-562 leukemia, 59 µM; in the experiment on SN12C renal, 46.1 µM. For the same compound, the TGI is 32.2 µM in the experiment with EKVX NSCLC and 30.3 µM in the experiment on RXF 393 renal.

Take `O=C1CNC(=O)c2[nH]cnc2N1`: the TGI in the experiment on 786-0 renal, with OVCAR-5 ovarian, in the experiment with SK-MEL-28 melanoma, in the experiment with NCI-H23 lung, in the experiment on K-562 leukemia and with SN12C renal was over 100 µM each time. Besides, the TGI in the experiment with EKVX NSCLC and with RXF 393 renal was over 100 µM each time.

Regarding `COC(=O)C1CC(OC(C)=O)C=C2C(=O)CCC21` (stereo not drawn), the TGI in the experiment with 786-0 renal was found to be 51 µM; in the experiment on SK-MEL-28 melanoma it was 33.8 µM; with K-562 leukemia it was 29.3 µM; with SN12C renal, 41.9 µM; in the experiment on RXF 393 renal, 29.8 µM; in the experiment on NCI-H522 lung, 3.75 µM.

For `N#CC(C#N)=Cc1ccc(CP(=O)(O)O)cc1`, the TGI in the experiment on 786-0 renal, in the experiment with OVCAR-5 ovarian, with SK-MEL-28 melanoma, in the experiment on NCI-H23 lung, in the experiment with K-562 leukemia and with SN12C renal was over 100 µM each time. The TGI with EKVX NSCLC and in the experiment with NCI-H522 lung was over 100 µM each time.

Regarding `Cc1ccc(S(=O)(=O)C2=c3nc4ccccc4cc3=C3C(=O)c4ccccc4C(=O)C32)cc1` (stereo not drawn), the TGI in the experiment with 786-0 renal, in the experiment on OVCAR-5 ovarian, with SK-MEL-28 melanoma, in the experiment with NCI-H23 lung, with K-562 leukemia and in the experiment on SN12C renal was over 100 µM each time. The TGI in the experiment with EKVX NSCLC and in the experiment on NCI-H522 lung was over 100 µM throughout.

Turning to `CC(=O)NNc1nc(C)c(C(=O)/C=C/c2ccc(Cl)cc2)s1`, the TGI in the experiment on 786-0 renal, in the experiment with OVCAR-5 ovarian, in the experiment on SK-MEL-28 melanoma, in the experiment with NCI-H23 lung, with K-562 leukemia and with EKVX NSCLC was over 100 µM throughout. Moreover, the TGI in the experiment on RXF 393 renal and with NCI-H522 lung was over 100 µM in each case.

For `CCOC(=O)C(Cc1ccccc1)NC(=O)c1[nH]cnc1/N=N/N(C)C` (stereo not drawn), the TGI with 786-0 renal, in the experiment with OVCAR-5 ovarian, with SK-MEL-28 melanoma, with NCI-H23 lung, with K-562 leukemia and with SN12C renal was over 100 µM in each case. The TGI in the experiment on EKVX NSCLC and with NCI-H522 lung was over 100 µM in each case.

As for `COC1CCC(OC)C(C2(C3CC(OC)CCC3OC)OC(=O)c3ccccc32)C1` (stereo not drawn), the TGI in the experiment on 786-0 renal, with OVCAR-5 ovarian, in the experiment with NCI-H23 lung, in the experiment with K-562 leukemia, with SN12C renal and in the experiment with EKVX NSCLC was over 100 µM in each case. In addition, the TGI in the experiment with RXF 393 renal was over 100 µM; in the experiment on NCI-H522 lung, 52.1 µM.
